Measurements from patent publication US20040157784A1, “Opiod tannate compositions” (Jame Fine Chemicals, Inc., priority 2003, published 2004).

Experiment: Solubility of hydrocodone free base in methylene chloride (solvent of the reaction completion test)

## COc1ccc2c3c1O[C@H]1C(=O)CC[C@H]4[C@@H](C2)N(C)CC[C@]314 [hydrocodone free base]
  soluble to the extent of (methylene chloride): 99.94%
